These results are taken from ChEMBL document CHEMBL3507680, “University of Dundee, Gates Library screen for HepG2 cell viability”.

A short description of this data set: Human HepG2 cell viability assay in 384 well format. The settings on record: HepG2 cells, read-out: Inhibition. More on the design: dose 125 nL, time 70.5 hour; cytotoxicity at 70.5 h: concentration not given beside the values. The class given is toxicity, cell-based.
Regarding `COC(=O)CCCC(=O)N1CCC(CO)(CCc2ccccc2)CC1`, the cytotoxicity at 70.5 h was -11.9%.

As for `CC(C)Cn1cncc1CNC1CCCNC1` (stereo not drawn), the cytotoxicity at 70.5 h was -4.78%.

As for `Cc1cc(C)c2nc(C)cc(C(=O)N3CC(O)CO3)c2c1` (stereo not drawn), the cytotoxicity at 70.5 h turned out to be 17.6%.

With `NCCO[C@H]1C[C@@H](O)C12CCN(C(=O)COc1cccc(Cl)c1)CC2`, the cytotoxicity at 70.5 h was -5.89%.

As for `CCN(CCn1cccn1)Cc1nc(-c2cccc(C)c2)oc1C`, the cytotoxicity at 70.5 h was -5.06%.

For the compound `CC(C)c1nc(CN(C)C(=O)CCc2ccc3c(c2)OCO3)cs1`, the cytotoxicity at 70.5 h is -9.76%.

In the case of `CCCN1CCCn2nc(CNS(=O)(=O)c3cccc(F)c3)cc2C1`, the cytotoxicity at 70.5 h was -5.1%.

In the case of `CC(c1ccccn1)N(C)Cc1ccc(-n2cncn2)cc1` (stereo not drawn), the cytotoxicity at 70.5 h was -8.14%.

Consider `CSCCC(=O)N1CCCN(c2ccccc2C)CC1`, for which the cytotoxicity at 70.5 h turned out to be 13.3%.

With `Cn1ccnc1C1CCN(S(=O)(=O)c2ccc3[nH]c(=O)[nH]c3c2)CC1`, the cytotoxicity at 70.5 h turned out to be 15.5%.

For `CCc1nc(C)sc1CN1CC[C@@](O)(C2CCOCC2)[C@H](C)C1`, the cytotoxicity at 70.5 h is -12.2%.

As to `COc1cc(N2CCCC(c3ncc[nH]3)C2)ncn1` (stereo not drawn), the cytotoxicity at 70.5 h was -1.53%.

Regarding `Cc1ccc2nc(C)cc(C(=O)NCc3csc(N(C)C)n3)c2c1`, the cytotoxicity at 70.5 h is -2.75%.

With `COc1cccc2ccc(CN3CCN(c4cccnc4)CC3)nc12`, the cytotoxicity at 70.5 h turned out to be 7.51%.

With `COC(=O)NCC(=O)N1CCCC(c2ncc[nH]2)C1` (stereo not drawn), the cytotoxicity at 70.5 h is -27.3%.

`Fc1cccc(C2(CNC3CCOC4(CCOCC4)C3)CCOCC2)c1` (stereo not drawn): the cytotoxicity at 70.5 h was -5.85%.

`Cc1nn(C)cc1CN(C)c1nccc(-c2cn(C)nc2C)n1`: the cytotoxicity at 70.5 h was -0.948%.

As to `CCc1cc(N2CCCC(CC)(C(=O)O)C2)nc(N2CCOCC2)n1` (stereo not drawn), the cytotoxicity at 70.5 h is 13.3%.

As for `CNCc1cn(CC2CCN(CC(C)(C)CN3CCCC3)CC2)nn1`, the cytotoxicity at 70.5 h was -13.6%.

Regarding `CCCOC(=O)N1CCCC(c2nnc(CN3CCOCC3)n2C)C1` (stereo not drawn), the cytotoxicity at 70.5 h amounted to 2.16%.

In the case of `Cn1nccc1C(=O)N1CCN(C(=O)C2CCC2)[C@@H]2CS(=O)(=O)C[C@@H]21`, the cytotoxicity at 70.5 h was -6.57%.

As to `CSCc1noc(CNC(=O)C2CCN(C(=O)C3CCC3)CC2)n1`, the cytotoxicity at 70.5 h was -11.8%.

On to `COc1ccc(Cc2nc3c([nH]2)CC(C)(C)CNC3=O)c(OC)c1`, for which the cytotoxicity at 70.5 h is -9.23%.

Turning to `CCCOc1ccc(C(=O)N2CCN3CCNC(=O)C3C2)cc1Cl` (stereo not drawn), the cytotoxicity at 70.5 h was -8.43%.

As for `Cn1cnc2cc(C(=O)N3CCN(CCO)[C@@H]4CS(=O)(=O)C[C@@H]43)ccc21`, the cytotoxicity at 70.5 h is -0.937%.

For the compound `CCCN(Cc1ccccn1)Cc1ccccc1OC`, the cytotoxicity at 70.5 h was -6.2%.

For the compound `CC(=O)c1ccc(N2CCCC(CO)(CCc3ccccc3)C2)nc1` (stereo not drawn), the cytotoxicity at 70.5 h was -1.42%.

As for `NC(=O)CN1CCC(C(=O)NCc2ccc3c(c2)OCCCO3)CC1`, the cytotoxicity at 70.5 h was -8.05%.

Take `CC1(C)CN(S(=O)(=O)N2CCOCC2)CC1c1ccccc1` (stereo not drawn): the cytotoxicity at 70.5 h came out at 1.45%.

Turning to `Cc1cc(C)nc(NCc2cc3n(n2)CCCN(C(=O)C2CCC2)C3)n1`, the cytotoxicity at 70.5 h is -1.4%.

As for `COc1ncc(-c2nccn2-c2ccccc2CN2CCOCC2)cn1`, the cytotoxicity at 70.5 h is -7.32%.

Turning to `CN1CCC(N2CCC(CN(Cc3ccncc3)C3CCC3)CC2)CC1`, the cytotoxicity at 70.5 h is -4.29%.

As for `Cc1cccc(C(Nc2nccc(C)n2)C2CC2)n1` (stereo not drawn), the cytotoxicity at 70.5 h is -4.46%.

For `CC(C)c1cc(NCc2csc(N(C)C)n2)nc(N)n1`, the cytotoxicity at 70.5 h came out at 17.1%.

For `Cc1ccccc1N1CCCN(C(=O)CCCn2ccnc2C)CC1`, the cytotoxicity at 70.5 h was -12.2%.

`Cc1nc(CN2CCCCC2CCc2cccs2)co1` (stereo not drawn): the cytotoxicity at 70.5 h was -9.07%.

Regarding `COc1ccc2c(c1)OCC(Cc1cc(N3CCCC3)cnn1)C2` (stereo not drawn), the cytotoxicity at 70.5 h is 1.96%.

Take `COc1ccc(-n2cccn2)c(CN2CCC3(CCCN(C)C3=O)C2)c1` (stereo not drawn): the cytotoxicity at 70.5 h is -9.91%.

`CCn1ncnc1CN1CCC(CNC(=O)c2ccccc2C#N)C1` (stereo not drawn): the cytotoxicity at 70.5 h came to 0.027%.

In the case of `O=C(Nc1ccccc1)c1cccc(S(=O)(=O)NC[C@@H]2C[C@H](F)CN2)c1`, the cytotoxicity at 70.5 h was determined as 6.01%.

Consider `NC(=O)c1noc(Cn2ncc3ccccc3c2=O)n1`, for which the cytotoxicity at 70.5 h was found to be 12.9%.

In the case of `Cc1ccc2c(c1)c(CNC(C)Cn1ccnc1)nn2C` (stereo not drawn), the cytotoxicity at 70.5 h was -5.3%.

On to `O=S(=O)(CCNCc1cc(O)c2cc(F)ccc2n1)N1CCCC1`, for which the cytotoxicity at 70.5 h is 17.6%.

As to `CCN(CCO)C[C@@H]1CN(c2cccc(C(F)(F)F)n2)C[C@@H]1CO`, the cytotoxicity at 70.5 h is -11.5%.

For `COCCCN1CCCC2(CCN(S(=O)(=O)c3cccnc3)C2)C1=O` (stereo not drawn), the cytotoxicity at 70.5 h was found to be 9.1%.

In the case of `CC(NS(C)(=O)=O)C(=O)N(C)Cc1csc(-c2cccs2)n1` (stereo not drawn), the cytotoxicity at 70.5 h was -13.4%.

On to `CC1(C)CNC(=O)c2nc(C3CCN(C(=O)C4CC4)CC3)[nH]c2C1`, for which the cytotoxicity at 70.5 h is -11%.

`CNC(=O)C(C)(C)N(C)C(=O)c1cc(COc2ccccc2OC)[nH]n1`: the cytotoxicity at 70.5 h was -5.11%.

As for `CN(CC1Cc2ccccc2CN1C)C(=O)CSc1nccn1C` (stereo not drawn), the cytotoxicity at 70.5 h is -8.61%.

Turning to `CC(C)Cc1ncc2c(n1)CN(c1cc(N)nc(N)n1)C2`, the cytotoxicity at 70.5 h is -1.3%.

Take `CC(C)Cc1noc(CN(C)C[C@]2(O)CCCN3CCCC[C@@H]32)n1`: the cytotoxicity at 70.5 h was -12.8%.

For the compound `COc1ccc(C(=O)N2CCC(c3nccn3C(C)C)CC2)cc1OC`, the cytotoxicity at 70.5 h was 22.5%.

Regarding `CC(=O)Nn1c(C)cc(CN2CCCN(Cc3ccncc3)CC2)c1C`, the cytotoxicity at 70.5 h is -0.666%.

Take `COc1cccc(N2CCN(Cc3nccc(OC)c3OC)CC2=O)c1`: the cytotoxicity at 70.5 h was -0.0493%.

`Cc1cc(N2CCCN3CCC[C@H]3C2)n2nc(C)c(C)c2n1`: the cytotoxicity at 70.5 h is -4.24%.

Regarding `Cc1ccc2nc(CN3CCCCC3CCn3cccn3)cn2c1` (stereo not drawn), the cytotoxicity at 70.5 h was found to be 6.68%.

For the compound `CN(Cc1cccc(-n2cccn2)c1)Cc1c[nH]cn1`, the cytotoxicity at 70.5 h is -0.523%.

With `CC1(Cc2cccnc2)NCCc2[nH]cnc21` (stereo not drawn), the cytotoxicity at 70.5 h came out at 10.5%.

Consider `Cc1cc(F)ccc1S(=O)(=O)N1C[C@@H](C)[C@@](C)(O)C1`, for which the cytotoxicity at 70.5 h is -3.25%.

In the case of `CC(C)N1CCC(N2CCCC(C(=O)NCC3(C)COC3)C2)CC1` (stereo not drawn), the cytotoxicity at 70.5 h is -3.7%.

For `CCN(CC)C(=O)C1CCCN(c2ncnc3oc(C)nc23)C1` (stereo not drawn), the cytotoxicity at 70.5 h was -5.71%.

Consider `CCc1noc(CN(C)C(=O)c2ccccc2-c2ncn[nH]2)n1`, for which the cytotoxicity at 70.5 h is -2.67%.

Regarding `CS(=O)(=O)N1C[C@@H]2CC[C@H](C1)N(C(=O)Cn1ccc3ccccc31)C2`, the cytotoxicity at 70.5 h was -4.09%.

For `Cn1cc(C(=O)N2CC[C@H](N3CCOCC3)[C@H](CCCO)C2)cn1`, the cytotoxicity at 70.5 h is -12.1%.

In the case of `CCCc1nc(C)cc(N2CCC3(CCC(=O)N(CCO)C3)CC2)n1`, the cytotoxicity at 70.5 h is -4.4%.

With `COCCn1ccnc1-c1cc(CN2CCCCC2)cs1`, the cytotoxicity at 70.5 h was found to be 33.9%.

Take `CSCc1noc(CNC(=O)C2CCN(C(C)C)CC2)n1`: the cytotoxicity at 70.5 h is -12%.

As for `Cc1nnc(N2CCC(CCn3ccnc3C)CC2)o1`, the cytotoxicity at 70.5 h was -5.62%.

On to `CC(=O)NCCC1CCCCN1S(=O)(=O)c1ccc2ccccc2c1` (stereo not drawn), for which the cytotoxicity at 70.5 h was 4.83%.

Take `CN(C)c1ccc(C(=O)NCCCc2ccccn2)cn1`: the cytotoxicity at 70.5 h is -1.92%.

With `Cc1ccnc(Cn2cc(-c3cccc(C(C)N(C)C)c3)nn2)c1` (stereo not drawn), the cytotoxicity at 70.5 h was -6.95%.

For the compound `COc1ncc(-c2ccc(O)cc2)c(OC)n1`, the cytotoxicity at 70.5 h is -6.77%.

As to `Cc1cc(C(=O)N2CCCC(C(=O)c3cccs3)C2)c(=O)[nH]c1C` (stereo not drawn), the cytotoxicity at 70.5 h is 17.8%.

Consider `CCCc1ccc(CN2CCN(C(=O)NCC)[C@H]3CS(=O)(=O)C[C@H]32)o1`, for which the cytotoxicity at 70.5 h is -15.3%.

For `CSCC(=O)N1CCCC(CO)(CC2CC2)C1` (stereo not drawn), the cytotoxicity at 70.5 h was -11%.

Take `Cc1ccc([C@@H]2CN(C(=O)c3ccsc3)C[C@H]2NC(=O)C2CC2)cc1`: the cytotoxicity at 70.5 h is -8.66%.

Take `CC(C)c1nc(CN(C)C(=O)[C@H](N)Cc2ccc(Cl)cc2)cs1`: the cytotoxicity at 70.5 h was found to be 2.45%.

As for `CC(C)N1CCCC2(CCN(c3nccc(C(F)(F)F)n3)C2)C1=O` (stereo not drawn), the cytotoxicity at 70.5 h is -3.02%.

On to `Cc1cc(C)c2c(c1)C(CC(=O)O)C(=O)N2` (stereo not drawn), for which the cytotoxicity at 70.5 h was 24.2%.

`CC(C)c1cc(CN2CCN(c3cccnc3)CC2)n(C)n1`: the cytotoxicity at 70.5 h was 5.33%.

Consider `Cc1cc(N2CCC3(CCCN(C4CCOCC4)C3=O)C2)ccn1` (stereo not drawn), for which the cytotoxicity at 70.5 h was -4.29%.

For `Cc1ccc(CN(Cc2ccccn2)C(=O)C2CCCCCN2C)s1` (stereo not drawn), the cytotoxicity at 70.5 h was 27.3%.

`CN1CCC(Cc2nc(-c3ccnn3C)n(Cc3ccccc3)n2)CC1`: the cytotoxicity at 70.5 h was 12.7%.

For the compound `O=C(Cc1ccncc1)N1C[C@@H]2CC[C@H](C1)N(Cc1ccccc1)C2=O`, the cytotoxicity at 70.5 h was -3.45%.

As for `O=C(c1ccc(C2CCCN2)s1)N1CCN2CCC1CC2` (stereo not drawn), the cytotoxicity at 70.5 h was -5.88%.

Regarding `CCN(Cc1noc(C)n1)C(=O)CCn1c(C)cc2ccccc21`, the cytotoxicity at 70.5 h was -6.29%.

`O=C(CCCN1CCCCC1)N1CCC(c2nnc[nH]2)CC1`: the cytotoxicity at 70.5 h was -4.84%.

Take `Cc1nccn1CCN1C(=O)CC2(CCCC2)CC1=O`: the cytotoxicity at 70.5 h was -9%.

In the case of `Cc1ccnc(NCCNC(=O)Cc2c(C)[nH]c3c(C)ccc(C)c23)c1`, the cytotoxicity at 70.5 h was determined as 34.5%.

For the compound `CN(C)CC1(O)CCCN(c2ccnc3c(C(F)(F)F)cccc23)C1` (stereo not drawn), the cytotoxicity at 70.5 h is -5.96%.

Regarding `COc1nc2c(cc1C(=O)NCCc1nc3c(s1)CCC3)CCC2`, the cytotoxicity at 70.5 h is 3.25%.

As for `CC(C)N1CCC(C(=O)N2CCCN(c3ccccc3)CC2)CC1`, the cytotoxicity at 70.5 h is -8.78%.

On to `CC(=O)N1CCCn2nc(CNC(=O)N3CCCCC3)cc2C1`, for which the cytotoxicity at 70.5 h came to 19.2%.

On to `CCCc1cnc(C)nc1NCCc1nc(C)cc(=O)[nH]1`, for which the cytotoxicity at 70.5 h was -9.64%.

With `Cc1cc2cccc(C(=O)N3CC[C@](C)(O)[C@H](C)C3)c2o1`, the cytotoxicity at 70.5 h was 14.5%.

In the case of `CCc1cc(-c2nccn2-c2ccccc2CN2CCOCC2)on1`, the cytotoxicity at 70.5 h was 16.1%.

Consider `CC(=O)N1CCc2c(nc(N(C)C)nc2N(C)CCO)C1`, for which the cytotoxicity at 70.5 h is -2.49%.

For `CNc1nc(C(=O)N2CCC3(CCCN(C)C3=O)C2)cs1` (stereo not drawn), the cytotoxicity at 70.5 h was -4.39%.
